The results in this text go back to patent US11207291B2, “Antimicrobial compositions comprising cannabinoids and methods of using the same” (Graphium Biosciences, Inc., priority 2017, dated 2021).

The test system of one data set is S. aureus ATCC 29213. The data set is described as follows: MIC/MBC testing (Example 5). Type of data set: cell-based. The following applies: Staphylococcus aureus, ATCC29213; Example 5; read-out: MIC.
A further data set deals with S. aureus MMX 757. Kind of data set: MIC/MBC testing (Example 5). Type of data set: cell-based. The following applies: Staphylococcus aureus, MMX757; Example 5; read-out: MIC.
The next data set has as its system E. faecalis ATCC 29212. The data set is described as follows: MIC/MBC testing (Example 5). Format: cell-based. To be noted: Enterococcus faecalis, ATCC29212; Example 5; read-out: MIC.
For a further data set, the system named is E. coli ATCC 25922. The data set is described as follows: MIC/MBC testing (Example 5). Format: cell-based.
In the next data set the test system is S. pyogenes MMX 404. Kind of data set: MIC/MBC testing (Example 5). Format: cell-based. The following applies: Streptococcus pyogenes, MMX404; Example 5; read-out: MIC.
The test system of the next data set is E. faecalis MMX 848. Kind of data set: MIC/MBC testing (Example 5). The following applies: Enterococcus faecalis, MMX848; Example 5; read-out: MIC. Format: cell-based.
The subject of a further data set is S. pneumoniae ATCC 49619. Kind of data set: MIC/MBC testing (Example 5). Format: cell-based. To be noted: Streptococcus pneumoniae, ATCC49619; Example 5; read-out: MIC.
In the next data set the test system is Clostridium difficile. The data set is described as follows: Broth microdilution MIC, anaerobic bacteria (Example 1). Format: cell-based. The following applies: Example 1.
In data set [1] the test system is Enterococcus faecalis (VSE). Kind of data set: Broth microdilution MIC, aerobic bacteria (Example 1). Format: cell-based. The following applies: isolate MMX 101 (ATCC 29212). (In general: In broth dilution the organism is exposed to a series of concentrations in liquid medium.)
The test system of the next data set is Aspergillus fumigatus. Kind of data set: Broth microdilution MIC, yeast and fungi (Example 1). Type of data set: cell-based. To be noted: isolate MMX 5280 (ATCC MYA-3626).
The subject of the next data set is Streptococcus pneumoniae. Kind of data set: Broth microdilution MIC, aerobic bacteria (Example 1). Format: cell-based. The following applies: Example 1; isolate MMX 1195 (ATCC 49619).
For another data set, the system named is Streptococcus pyogenes. The description is as above. To be noted: isolate MMX 404. Type of data set: cell-based.
A further data set relates to Candida parapsilosis. The data set is described as follows: Broth microdilution MIC, yeast and fungi (Example 1). Type of data set: cell-based.
For another data set, the system named is Escherichia coli. Kind of data set: Broth microdilution MIC, aerobic bacteria (Example 1). Type of data set: cell-based. To be noted: isolate MMX 102 (ATCC 25922).
The next data set relates to Lactobacillus crispatus. The data set is described as follows: Broth microdilution MIC, anaerobic bacteria (Example 1). Type of data set: cell-based. To be noted: Example 1; isolate MMX 4147.
The subject of a further data set is Acinetobacter baumannii. The data set is described as follows: Broth microdilution MIC, aerobic bacteria (Example 1). Type of data set: cell-based. The following applies: Example 1; isolate MMX 1630.
Data set [2] in a line: Bioavailability assay: VB110 and CBD decoupling analysis of intestinal contents (Example 2). Format: in vivo. To be noted: mice, oral gavage 120 mg/kg VB110. The procedure:
In order to investigate the effectiveness of glycosylation to effect site-specific drug delivery, VB110 was administered to three mice by oral gavage and the animals sacrificed at 30, 60, and 90 minutes. Eight-week old male Swiss mice were fasted for 12 hours prior to administration of 120 mg/kg VB110 in 10% Ethanol USP, 10% Propylene Glycol USP, 0.05% Sodium Deoxycholate USP, 79.95% Saline USP. Following termination and tissue harvest, the intestinal contents were then extracted and analyzed by C18 reverse phase HPLC. […] This decoupling of VB110 is consistent with the large intestinal decoupling seen for sennoside beta-glycosides and is the result of secreted beta-glycosidases from the large intestinal microflora.

The next data set concerns Pseudomonas aeruginosa. The data set is described as follows: Broth microdilution MIC, aerobic bacteria (Example 1). Format: cell-based. The following applies: Example 1; isolate MMX 1380.
The next data set deals with Lactobacillus jensenii. The data set is described as follows: Broth microdilution MIC, anaerobic bacteria (Example 1). Type of data set: cell-based. The following applies: Example 1; isolate MMX 4149.
The next data set deals with Bacteroides fragilis. The data set is described as above. Format: cell-based. To be noted: Example 1; isolate MMX 123 (ATCC 5285).
Data set [3] relates to Enterococcus faecalis (VRE). Kind of data set: microbe, parasite or virus in culture. Format: cell-based. The following applies: Example 1; isolate MMX 848.
Data set [4] concerns Staphylococcus aureus (MRSA). The data set is described as follows: microbe, parasite or virus in culture. Format: cell-based. The following applies: Example 1; isolate MMX 757.
The next data set deals with Bifidobacterium longum. The data set is described as follows: Broth microdilution MIC, anaerobic bacteria (Example 1). Format: cell-based. The following applies: Example 1; isolate MMX 3968.
Data set [5] concerns Staphylococcus aureus (MSSA). Kind of data set: Broth microdilution MIC, aerobic bacteria (Example 1). Format: cell-based. To be noted: isolate MMX 100 (ATCC 29213).
In data set [6] the test system is Klebsiella pneumoniae (KPC-2). Format: cell-based. To be noted: Example 1; isolate MMX 4683.
The test system of the next data set is Bifidobacterium bifidum. The data set is described as follows: Broth microdilution MIC, anaerobic bacteria (Example 1). Type of data set: cell-based. To be noted: Example 1; isolate MMX 3965.
Data set [7] can be described thus: Compound precipitation in uninoculated solubility controls (Example 1). The arrangement: key to precipitation observed (type): NA: not applicable (no precipitation observed); TRP: trace precipitate; DCP: distinct precipitate. Format: physicochemical. On the procedure: Plates were stacked 3-4 high, covered with a lid on the top plate, placed in plastic bags, and incubated at 35° C. for approximately 16 to 20 hr (aerobes), 20 to 24 hr (Streptococcus), and 24 and 48 hr (fungi). Anaerobe plates were stacked, covered with a lid on the top plate, placed in a BD GasPak EZ Anaerobe Container System and incubated at 35° C. for 48 hr. Following incubation, the microplates were removed from the incubator and viewed from the bottom using a plate viewer. […] The MIC was read and recorded as the lowest concentration of drug that inhibited visible growth of the organism.

In brackets after ≈: the same amount, converted by molar mass.

For orientation: MBC means the smallest concentration meeting the test's criterion for killing. With `C[C@@H](O)[C@H]1C(=O)N2C(C(=O)O)=C(SCCN=CN)C[C@H]12` [Imipenem], the MIC is 0.015 µg/mL (≈ 0.0501 µM) in the data set with S. aureus ATCC 29213; 4 µg/mL (≈ 13.4 µM) in the data set with S. aureus MMX 757; 0.5 µg/mL (≈ 1.67 µM) with E. faecalis ATCC 29212; 0.12 µg/mL (≈ 0.401 µM) in the data set on E. coli ATCC 25922 (Escherichia coli, ATCC25922, Example 5, read-out: MIC); no more than 0.008 µg/mL in the data set on S. pyogenes MMX 404; 1 µg/mL (≈ 3.34 µM) in the data set on E. faecalis MMX 848. The MIC with S. pneumoniae ATCC 49619 was determined as 0.015 µg/mL (≈ 0.0501 µM). The molecule also displayed an MBC in the data set with E. coli ATCC 25922 (Escherichia coli, ATCC25922, Example 5, quality control MBC test) of 0.12 µg/mL (≈ 0.401 µM). In addition, in the data set with E. coli ATCC 25922 (ratios of 1-4 are indicative of bactericidal activity), the “MBC:MIC” value was found to be 1.
For `C=C(C)[C@@H]1CCC(C)=C[C@H]1c1c(O[C@@H]2O[C@H](CO)[C@@H](O)[C@H](O)[C@H]2O)cc(CCCCC)cc1O[C@@H]1O[C@H](CO)[C@@H](O)[C@H](O)[C@H]1O` [VB110], the MIC (against Clostridium difficile (isolate MMX 4381 (ATCC 00057)); in the data set on Clostridium difficile (isolate MMX 8330); against Clostridium difficile (isolate MMX 8333); in data set [1]; against Streptococcus pneumoniae; against Streptococcus pyogenes) was greater than 256 µg/mL each time. In addition, the MIC against Escherichia coli, in the data set with Lactobacillus crispatus, in the data set with Acinetobacter baumannii, in the data set on Pseudomonas aeruginosa, in the data set on Lactobacillus jensenii and against Bacteroides fragilis was greater than 256 µg/mL throughout. For the same molecule, the MIC (in data set [3]; in [4]; in the data set with Bifidobacterium longum; in [5]; in data set [6]; against Bifidobacterium bifidum) was greater than 256 µg/mL in each case. Moreover, the “MIC at 24 hr” value in the data set on Aspergillus fumigatus (24 hr) is reported as >256, μg/mL; against Candida parapsilosis (Example 1, 24 hr, isolate MMX 2323 (ATCC 22019)), >256^2, μg/mL. The “MIC at 48 hr” value was greater than 256 µg/mL in the data set on Aspergillus fumigatus (48 hr) and >256^2 μg/mL against Candida parapsilosis (Example 1, 48 hr, isolate MMX 2323 (ATCC 22019)). For the same molecule, in the data set with Candida parapsilosis (24 and 48 hr, concentrations >16 μg/mL), the “inhibition of growth relative to the growth control” value turned out to be 50%. The “small intestinal contents (HPLC)” value in data set [2] (30, 60, and 90 minutes) is “intact VB110, but no decoupled CBD”. Also, in data set [2] (60 and 90 minute time points), the “large intestinal contents (HPLC)” value is “contained both VB110 and CBD”. Moreover, the “precipitation observed (type)” value is reported as “none” in data set [7] (MHB II) and “TRP” in data set [7] (RPMI). Further, the “lowest concentration at which precipitation was observed” value in data set [7] (RPMI) was determined as 32 µg/mL.
